Source: publication PMC10534582, “A Pharmacokinetic Study of Sixteen Major Bioactive Components of Jinshui-Huanxian Granules in Pulmonary Fibrosis Model and Control Rats Using Orbitrap Fusion Mass Spectrometry” (Molecules, 2023)

Columns and labels:
[1] = because of poor gastrointestinal absorption; cited from earlier work
[2] = Pharmacokinetics of JHG components in pulmonary fibrosis (PF) model rats after intragastric administration of JHGs (plasma, Orbitrap Fusion MS); assay type: in vivo, Sprague Dawley (SD) rats
Method: (§1) Healthy male Sprague Dawley (SD) rats of SPF grade (240 ± 20 g) were purchased from Sipeifu (Beijing, China) Biotechnology Co., Ltd. (Beijing, China), Certificate of Conformity No.: SCYK (Beijing, China) 2019-0015, Animal Quality Certificate No.: 110324220102348616. They were housed in the Animal Center of Henan University of Traditional Chinese Medicine, which passed the ethical audit, ethics number: DWLL202208003, breeding Co. 24 °C, relative humidity 50 ± 2%. The animals fasted for 12 h before the experiment and drank water freely. All feeding and experimental studies on experimental animals were in accordance with the regulations on the Management of Experimental Animals in Henan Province.
The PF model in rats was replicated by reference to the conclusion tracheal intubation method in the literature. After the rats were anesthetized, bleomycin (BLM) (5 mg/kg) was used as an induction agent and followed the tracheal intubation method. BLM solution was aspirated with a 1 mL syringe and injected into the indwelling syringe. A total of 0.3 mL of air was rapidly pushed into the syringe, the rats were immediately stroked upright so that the BLM solution was evenly distributed in both lungs. BLM was given on day 0 for modeling, then gavage was taken after day 28, with fasting without water for 12 h before sampling. The histopathological examination was performed to verify the construction of the PF model. The rats were anesthetized by the abdominal cavity, then the lung tissues were violently shocked by opening the chest, and the right lower lobe of the lung was taken and fixed in 4% formaldehyde solution, then dehydrated by sucrose gradient, paraffin-embedded, and sectioned. H&E and Masson staining were performed to observe the degree of alveolitis of lung tissue and the degree of pulmonary fibrosis, respectively. The inflammation and fibrosis of lung tissues was observed under the light microscope.
(§2) Twenty-four healthy male SD rats or PF model rats, weighing 240 ± 20 g, fasted for 12 h before the experiment and drank water freely. Both kinds of rats were randomly divided into four groups. Blank group: equal dose of water by intragastric, low dose; administration group: rats were given the equivalent human dose of JHGs by intragastric, i.e., 10.8 g of raw drug/kg/d (5.70 g/kg/d); medium-dose administration group: 2 times the human equivalent dose of JHGs by intragastric, i.e., 21.6 g of raw drug/kg/d (11.41 g/kg/d); high-dose administration group: 4 times the human equivalent dose of JHG, i.e., 43.2 g of raw drug/kg/d (22.81 g/kg/d). Blood was collected from the tail vein before and 0.083, 0.25, 0.5, 0.75, 1, 1.5, 2, 3, 4, 6, 8, 12, 18, and 24 h after dosing, respectively. A total of 0.5 mL was placed in a heparin sodium centrifuge tube. Whole blood was left for 30 min and then centrifuged in a low-temperature freezing centrifuge (4 °C, 3000 r/min) for 15 min. The upper layer of plasma was collected and stored in a refrigerator at −80 °C.
(§3) We added 50 μL of internal standard solution and 800 μL of methanol, shook for 15 min, then centrifuged at 12,000 r/min for 10 min, took the supernatant, dried in a centrifuge concentrator, added 50 μL of the initial mobile phase to the residue, dissolved, centrifuged, then separated the upper layer of the solution used as the test solution. A total of 5 μL test solution was taken into the sample for analysis. For each compound with a certain dosage, the same procedure is repeated six times in parallel. The concentration in plasma was calculated by the internal standard method.
Accucore C18 (100 mm × 2.1 mm, 2.6 μm) column at 25 °C, the mobile phase was methanol (A)-0.1% formic acid aqueous solution (B). The gradient elution program was 0–4 min (65% B-40% B), 4–5 min (40% B-40% B), 5–6 min (40% B-28% B), and 6–7 min (28% B-19% B), 7–7.5 min (19% B-10% B), 7.5–11 min (10% B-0% B), the flow rate was 0.2 mL/min, and the injection volume was 5 μL. […]

[3] = Pharmacokinetics of JHG components in control rats after intragastric administration of JHGs (plasma, Orbitrap Fusion MS); assay type: in vivo, Sprague Dawley (SD) rats; conditions: low, medium, high doses of JHGs
Method: as §1, §2, §3
Accucore C18 (100 mm × 2.1 mm, 2.6 μm) column at 25 °C, the mobile phase was methanol (A)-0.1% formic acid aqueous solution (B). The gradient elution program was 0–4 min (65% B-40% B), 4–5 min (40% B-40% B), 5–6 min (40% B-28% B), and 6–7 min (28% B-19% B), 7–7.5 min (19% B-10% B), 7.5–11 min (10% B-0% B), the flow rate was 0.2 mL/min, and the injection volume was 5 μL.
The ion source was an electrospray ionization source (ESI). Nitrogen acted as a carrier gas. The sheath gas pressure was 35 Arb. The auxiliary gas pressure was 7 Arb. The spray voltage was 3.50 kv(+), 2.50 kv(-). The ion transport tube temperature was regulated at 300 °C. Gasification temperature was 275 °C. The resolution was 50,000. The scanning mode was set as SIM mode. The optimized parameters obtained are in Table 5.
Under the established Orbitrap Fusion MS method, the pharmacokinetics of JHG in rats were studied to investigate the dynamic changes of the active components in rats. The pharmacokinetic parameters of each component in each dosing group were calculated by […] model analysis using Kinetica 5.1 (Innaphase, Waltham, MA, USA) pharmacokinetic analysis software. The pharmacotemporal curves were plotted by the plotting software. SPSS 19.0 (IBM, Armonk, NY, USA) was used to analyze all the parameters. Independent sample tests were performed after natural logarithmic transformation for AUC0–t, Cmax. The nonparametric Mann–Whitney test was applied for Tmax, t½, and MRT0–t. p < 0.05 was considered statistically significant.

CC(C)=CCC[C@](C)(O[C@@H]1O[C@H](CO[C@@H]2OC[C@H](O)[C@H](O)[C@H]2O)[C@@H](O)[C@H](O)[C@H]1O)[C@H]1CC[C@]2(C)[C@@H]1[C@H](O)C[C@@H]1[C@@]3(C)CC[C@H](O[C@@H]4O[C@H](CO)[C@@H](O)[C@H](O)[C@H]4O[C@@H]4O[C@H](CO)[C@@H](O)[C@H](O)[C@H]4O)C(C)(C)[C@@H]3CC[C@]12C [Ginsenoside Rb2]
bioavailability, oral administration [1]: low
pharmacokinetic process (versus dosage) ([2]; PF model rats, low, medium, high doses of JHGs): linear pharmacokinetic process
Tmax, PF model group compared with the control group ([2]; PF model vs control rats): slightly increased
reduction of Cmax in PF model group relative to control ([2]; PF model vs control rats): about 1/3
Cmax, PF model group compared with the control group ([2]; PF model vs control rats, medium dose selected for comparison): significantly decreased
AUCs, PF model group compared with the control group ([2]; PF model vs control rats, p < 0.05): significantly decreased
Tmax ([2]; male, Sprague-Dawley, rat, plasma, po, PF model rats, after administration of JHGs, read-out: Tmax of all dosages): ≤ 2 h
pharmacokinetic process (Cmax and AUCs versus dosage) [3]: linear pharmacokinetic process
